Data as given in patent publication US20110306636A1, “OXAZOLE PYRIDINE DERIVATIVES USEFUL AS S1P1 RECEPTOR AGONISTS” (Merck Serono SA, priority 2009, published 2011).
Structures can show the parent of a compound that is named as a salt. Where two headings read alike, the source gives them in different places.

Key:
S1P1 [1] = target: T1, S1P1 (Homo sapiens, UniProt P21453); assay: 35S-GTPγS binding assay, S1P1 membranes; type: biochemical; details: membranes from CHO cells expressing S1P1; read-out: S1P1/GTPG EC50
Description: (§1) Membranes Preparation: Membranes were prepared from CHO cells expressing S1P1 or S1P3 for use in ligand and 35S-GTPγS binding studies. Cells were suspended in 50 mM TRIS, pH 7.4, 2 mM EDTA, 250 mM Sucrose (buffer A) and 1× Complete protease inhibitor cocktail (Roche), and disrupted at 4° C. by N2 decompression using a cell disruption bomb (Parr Instrument). Following centrifugation at 1000 RPM for 10 min at 4° C., the supernatant was diluted (2×) in buffer A and centrifuged again at 19000 RPM for 75 min at 4° C. The pellet was then suspended in 10 mM HEPES, pH 7.4, 1 mM EDTA, 250 mM Sucrose (Buffer B), and 1× Complete EDTA-free protease inhibitor cocktail and homogenized using a potter. Membranes were flash frozen in liquid N2 and stored at −80° C.
Measurements of 35S-GTPγS Binding: Membranes (1 to 10 μg protein) prepared as described above, were incubated in 96-well Scintiplates (PerkinElmer) with test compounds diluted in DMSO, in 140 μl of 20 mM HEPES, pH 7.4, 10 mM MgCl2, 2 μg/well Saponin, 0.2% fatty acid free BSA (Assay buffer), 125 mM NaCl and 1.5 μM GDP. The assay was initiated with the addition of 60 μl of 1.5 nM [35S]-GTPγS (1100 Ci/mmol; GE Healthcare) in assay buffer. After 60 min incubation at 30° C. on a shaker, plates were centrifuged for 10 min at 2000 RPM. Supernatant was discarded and membrane bound radioactivity was measured on a PerkinElmer 1450 MicroBeta counter. Triplicate samples were averaged and expressed as % response relative to S1P activation in absence of compound (n=2).
The “potency” or the “activity” of the compounds is determined by the EC50 values as evaluated in the above described 35S-GTPγS binding assay.

S1P1 [2] = target: T1, S1P1; assay: Receptor binding assay, [33P]sphingosine 1-phosphate competition, S1P1
Description: as §1
(§2) Receptor binding assay: [33P]sphingosine 1-phosphate (3000 Ci/mmol; American Radiolabeled Chemicals, Inc.) was added to test compounds in 20% DMSO by competition. Membranes and WGA SPA beads (GE Healthcare) were added to give a final volume of 100 μl in 96-well plates or 50 μl in 384-well plates with assay concentrations of 30 pM or 15 pM [33P]sphingosine 1-phosphate (respectively for S1P1 or S1P3), 50 mM HEPES, pH 7.5, 5 mM MgCl2, 100 mM NaCl, 0.4% fatty acid-free BSA, 1-5 μg/well of proteins in 96-well plates vs 0.6-1 μg/well of proteins in 384-well plates and 100 μg/well of WGA SPA beads in 96-well plates vs 75 μg/well of WGA SPA beads in 384-well plates. Binding was performed for 60 min at RT on a shaker and bound radioactivity was measured on a PerkinElmer 1450 MicroBeta counter. Triplicate samples were averaged and normalized as purcentage of inhibition relative to total binding (only DMSO in well) and non specific binding (1000-fold excess of unlabeled S1P). Binding data were analyzed using the GraphPad Prism program or Genedata software.

S1P3 = S1P3 (Homo sapiens, UniProt Q99500); assay: Receptor binding assay, [33P]sphingosine 1-phosphate competition, S1P3
Description: as §1, §2

[3] = target: T2, human S1P1 Receptor fused to the green fluorescent protein (EGFP) (Homo sapiens, UniProt P21453); assay: Internalization of S1P1 in S1P1-U2OS cells by cell imaging analysis; type: cell-based; details: 1 hour incubation, 384-well
T2 construct: host or cells: U2OS (human bone osteosarcoma epithelial cells), CMV promoter, geneticin selection
Description: Cellular Functional Assays: Internalization of Sphingosine-1-Phosphate Receptor 1 (S1P1) in a Human Cell Line (U2OS) in a 384-Well Format Using a Cell Imaging Analysis.
The S1P1 internalization assay was performed in 384 well plates (Corning® 384 black with clear bottom 3712) using S1P1-U2OS cells from BioImage (C039A), a human epithelial cell line (Human Bone Osteosarcoma Epithelial Cells). These cells expressed the human S1P1 Receptor fused to the green fluorescent protein (EGFP). A standard CMV promoter (cytomegalovirus promoter) controls the expression of S1P1-EGFP and continuous expression was maintained by addition of geneticin to the culture medium.
S1P1 Receptor desensitization induced the internalization of the membrane-localized S1P1-EGFP fusion protein to endosomes, which can be monitored by cell imaging analysis.
The cells are plated in low serum medium (Dulbecco's Modified Eagle Medium (DMEM) with Glutamax-1 and high glucose, 1% Penicillin/Streptomycin, 1% Fetal Calf Serum (FCS), 0.5 mg/ml Geneticin) overnight.
The next day, S1P1-U2OS cells are incubated in 20 μl serum free medium (DMEM with Glutamax-1 and high glucose, 0.1% of fatty-acid free Bovin Serum Albumin (BSA), 10 mM, N′-2-Hydroxyethylpiperazine-N′-2 ethanesulphonic acid (HEPES) 1M) for 2 hours at 37° C./5% CO2.
The cells are then treated with 4 μl compounds/agonists (6×/3% DMSO) for a total volume of 24 μl, and plates are incubated for 1 hour at 37° C./5% CO2.
S1P1-U2OS cells are fixed with 25 μl Paraformaldehyde 8% and stained with Hoechst 33345 dye (1:1000) for 20 minutes.
They were then washed 3 times with Phosphate Buffered Saline (PBS) and plates are sealed.
The internalization of the receptor S1P1-EGFP is measured on Cellomics by calculating the “spot count per object” (“object” corresponds to nuclear and “spot” corresponds to S1P1-EGFP receptor). Internalization data were observed thanks to vHCS View and analyzed using Genedata® software.

[4] = 96 well-plate, read-out: S1P1 binding IC50 (M) (96 well-plate)
[5] = 384 well-plate, read-out: S1P1 binding IC50 (M) (384 well-plate)
[6] = 384 well-plate, read-out: S1P3 binding IC50 (M) (384 well-plate)

T2 sequence (P21453 with tags, fused parts or gaps): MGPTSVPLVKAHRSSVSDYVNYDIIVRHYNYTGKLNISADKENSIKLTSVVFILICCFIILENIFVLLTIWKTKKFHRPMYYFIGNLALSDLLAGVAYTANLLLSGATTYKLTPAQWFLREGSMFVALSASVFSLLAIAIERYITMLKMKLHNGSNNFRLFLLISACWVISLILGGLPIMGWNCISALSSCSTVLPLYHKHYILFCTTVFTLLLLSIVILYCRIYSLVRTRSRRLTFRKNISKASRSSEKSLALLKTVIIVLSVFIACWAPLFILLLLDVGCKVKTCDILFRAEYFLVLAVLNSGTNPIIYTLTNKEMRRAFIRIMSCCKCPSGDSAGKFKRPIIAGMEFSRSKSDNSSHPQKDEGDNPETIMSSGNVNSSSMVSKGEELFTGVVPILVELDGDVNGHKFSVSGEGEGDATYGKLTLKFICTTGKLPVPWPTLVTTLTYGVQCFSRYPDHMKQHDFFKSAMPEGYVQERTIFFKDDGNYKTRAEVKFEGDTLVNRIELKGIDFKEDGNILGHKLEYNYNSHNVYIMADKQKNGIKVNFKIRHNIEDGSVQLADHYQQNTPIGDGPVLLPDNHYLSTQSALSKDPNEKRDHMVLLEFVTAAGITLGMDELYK
S1P3, sequence (Q99500 whole entry, species assumed): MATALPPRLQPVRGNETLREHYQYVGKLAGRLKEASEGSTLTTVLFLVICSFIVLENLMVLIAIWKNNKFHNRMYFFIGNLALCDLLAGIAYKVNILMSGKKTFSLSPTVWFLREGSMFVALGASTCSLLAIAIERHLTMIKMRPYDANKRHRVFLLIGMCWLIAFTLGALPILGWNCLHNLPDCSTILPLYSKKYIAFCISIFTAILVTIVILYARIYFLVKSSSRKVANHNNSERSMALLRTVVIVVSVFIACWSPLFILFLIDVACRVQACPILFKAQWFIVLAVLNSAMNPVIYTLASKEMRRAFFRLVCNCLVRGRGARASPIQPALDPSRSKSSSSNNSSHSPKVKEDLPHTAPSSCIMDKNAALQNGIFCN
T1 sequence (P21453 whole entry, species assumed): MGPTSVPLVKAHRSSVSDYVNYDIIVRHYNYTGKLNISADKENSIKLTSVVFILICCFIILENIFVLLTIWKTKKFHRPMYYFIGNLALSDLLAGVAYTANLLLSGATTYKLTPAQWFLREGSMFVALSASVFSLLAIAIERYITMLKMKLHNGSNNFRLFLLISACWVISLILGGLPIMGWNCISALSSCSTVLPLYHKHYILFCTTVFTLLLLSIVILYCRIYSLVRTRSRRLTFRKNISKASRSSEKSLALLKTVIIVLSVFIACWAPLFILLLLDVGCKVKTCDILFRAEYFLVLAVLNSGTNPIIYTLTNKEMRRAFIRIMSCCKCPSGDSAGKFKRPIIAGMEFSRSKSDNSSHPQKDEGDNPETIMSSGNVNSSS

Structure (SMILES)	EC50 (S1P1 [1]) [nM]	further results
COCc1cc(-c2nc(-c3ccc(NCCC(=O)OC(C)(C)C)nc3)no2)ccc1-c1ccccc1C [Example 1, tert-butyl N-(5-{5-[2-(methoxymethyl)-2′-methylbiphenyl-4-yl]-1,2,4-oxadiazol-3-yl}pyridin-2-yl)-beta-alaninate]	134	
COCc1cc(-c2nc(-c3ccc(NCC(=O)O)nc3)no2)ccc1-c1ccccc1C [Example 3, N-(5-{5-[2-(methoxymethyl)-2′-methylbiphenyl-4-yl]-1,2,4-oxadiazol-3-yl}pyridin-2-yl)glycine, hydrochloride salt]	131	
COCc1cc(-c2nc(-c3ccc(NC(C)=O)nc3)no2)ccc1-c1ccccc1C [Example 5, N-(5-{5-[2-(methoxymethyl)-2′-methylbiphenyl-4-yl]-1,2,4-oxadiazol-3-yl}pyridin-2-yl)acetamide, hydrochloride salt]	14.6	
COCc1cc(-c2nc(-c3ccnc(N(C)C)c3)no2)ccc1-c1ccccc1C [Example 6, 4-{5-[2-(methoxymethyl)-2′-methylbiphenyl-4-yl]-1,2,4-oxadiazol-3-yl}-N,N-dimethylpyridin-2-amine, hydrochloride salt]	145	
COCc1cc(-c2nc(-c3ccc(NCCCC(=O)O)nc3)no2)ccc1-c1ccccc1C [Example 8, 4-[(5-{5-[2-(methoxymethyl)-2′-methylbiphenyl-4-yl]-1,2,4-oxadiazol-3-yl}pyridin-2-yl)amino]butanoic acid, hydrochloride salt]	9.99	
COCc1cc(-c2nc(-c3ccnc(NCC(=O)OC(C)(C)C)c3)no2)ccc1-c1ccccc1C [Example 10, tert-butyl N-(4-{5-[2-(methoxymethyl)-2′-methylbiphenyl-4-yl]-1,2,4-oxadiazol-3-yl}pyridin-2-yl)glycinate]	140	
CCc1ccccc1-c1ccc(-c2nc(-c3ccc(N)nc3)no2)cc1COC [Example 12, 5-{5-[2′-ethyl-2-(methoxymethyl)biphenyl-4-yl]-1,2,4-oxadiazol-3-yl}pyridin-2-amine, hydrochloride salt]	1.63	IC50 (S1P1 [2]; [4]): 8.84e-09 M
COCc1cc(-c2nc(-c3cnc(N)cn3)no2)ccc1-c1ccccc1C [Example 16, 5-{5-[2-(methoxymethyl)-2′-methylbiphenyl-4-yl]-1,2,4-oxadiazol-3-yl}pyrazin-2-amine]	72.8	
Cc1ccccc1-c1ccc(-c2nc(-c3ccc(N)nc3)no2)cc1C(F)(F)F [Example 19, 5-{5-[2′-methyl-2-(trifluoromethyl)biphenyl-4-yl]-1,2,4-oxadiazol-3-yl}pyridin-2-amine]	22.3	
COCc1cc(-c2nc(-c3ccc(OC)nc3)no2)ccc1-c1ccccc1C [Example 23, 2-methoxy-5-{5-[2-(methoxymethyl)-2′-methylbiphenyl-4-yl]-1,2,4-oxadiazol-3-yl}pyridine]	74.1	
COCc1cc(-c2nc(-c3ccc(C(=O)O)nc3)no2)ccc1-c1ccccc1C [Example 25, 5-{5-[2-(methoxymethyl)-2′-methylbiphenyl-4-yl]-1,2,4-oxadiazol-3-yl}pyridine-2-carboxylic acid, hydrochloride salt]	39.9	
COCc1cc(-c2nc(-c3ccc(C(N)=O)nc3)no2)ccc1-c1ccccc1C [Example 26, 5-{5-[2-(methoxymethyl)-2′-methylbiphenyl-4-yl]-1,2,4-oxadiazol-3-yl}pyridine-2-carboxamide]	45.2	
CNc1ccc(-c2noc(-c3ccc(-c4ccccc4C)c(COC)c3)n2)cn1 [Example 29, 5-{5-[2-(methoxymethyl)-2′-methylbiphenyl-4-yl]-1,2,4-oxadiazol-3-yl}-N-methylpyridin-2-amine]	43.8	
COCc1cc(-c2nc(-c3ccc(N(C)C)nc3)no2)ccc1-c1ccccc1C [Example 30, 5-{5-[2-(methoxymethyl)-2′-methylbiphenyl-4-yl]-1,2,4-oxadiazol-3-yl}-N,N-dimethylpyridin-2-amine]	688	
COCc1cc(-c2nc(-c3ccc(N4CCCC4)nc3)no2)ccc1-c1ccccc1C [Example 31, 5-{5-[2-(methoxymethyl)-2′-methylbiphenyl-4-yl]-1,2,4-oxadiazol-3-yl}-2-pyrrolidin-1-ylpyridine]	873	
COCc1cc(-c2nc(-c3cnc(NCCC(=O)OC(C)(C)C)c(Cl)c3)no2)ccc1-c1ccccc1C [Example 35, tert-butyl N-(3-chloro-5-{5-[2-(methoxymethyl)-2′-methylbiphenyl-4-yl]-1,2,4-oxadiazol-3-yl}pyridin-2-yl)-beta-alaninate]	9.45	
COCc1cc(-c2nc(-c3cnc(NCC(=O)O)c(Cl)c3)no2)ccc1-c1ccccc1C [Example 38, N-(3-chloro-5-{5-[2-(methoxymethyl)-2′-methylbiphenyl-4-yl]-1,2,4-oxadiazol-3-yl}pyridin-2-yl)glycine, hydrochloride salt]	29.1	
CC1CCCCN1c1ccc(-c2nc(-c3cnc(N)c(Cl)c3)no2)cc1C(F)(F)F (stereo not drawn) [Example 39, 3-chloro-5-{5-[4-(2-methylpiperidin-1-yl)-3-(trifluoromethyl)phenyl]-1,2,4-oxadiazol-3-yl}pyridin-2-amine]	32.6	
Cc1ccccc1-c1ccc(-c2nc(-c3ccc(CN(C)CC(=O)O)nc3)no2)cc1C(F)(F)F [Example 74, 2-(methyl((5-(5-(2′-methyl-2-(trifluoromethyl)biphenyl-4-yl)-1,2,4-oxadiazol-3-yl)pyridin-2-yl)methyl)amino)acetic acid]		IC50 (S1P1 [2]; [5]): 7.83e-09 M; IC50 (S1P3; [6]): 2.88e-06 M; EC50 [3]: 17.9 nM
Cc1ccccc1-c1ccc(-c2nc(-c3ccnc(CN(C)CC(=O)O)c3)no2)cc1C(F)(F)F [Example 75, 2-(((4-(5-(2-(trifluoromethyl)-2′-methylbiphenyl-4-yl)-1,2,4-oxadiazol-3-yl)pyridin-2-yl)methyl)(methyl)amino)acetic acid]		IC50 (S1P1 [2]; [5]): 9.46e-09 M; IC50 (S1P3; [6]): 2.26e-06 M; EC50 [3]: 15.2 nM
COCc1cc(-c2nc(-c3ccc(CN(C)CC(=O)O)nc3)no2)ccc1-c1ccccc1C [Example 78, 2-(((5-(5-(2-(methoxymethyl)-2′-methylbiphenyl-4-yl)-1,2,4-oxadiazol-3-yl)pyridin-2-yl)methyl)(methyl)amino)acetic acid]		IC50 (S1P1 [2]; [4]): 3.01e-09 M; IC50 (S1P1 [2]; [5]): 3.5e-09 M; IC50 (S1P3; 96 well-plate, read-out: S1P3 binding IC50 (M) (96 well-plate)): 3.04e-06 M; IC50 (S1P3; [6]): 2.48e-06 M; EC50 [3]: 9.48 nM
